This note sets out measurements from patent US6548494B1, “Tricyclic inhibitors of poly(ADP-ribose) polymerases” (Agouron Pharmaceuticals, Inc., priority 1999, dated 2003).

Molecules are shown by their SMILES. Where “and” joins values, the source holds several entries; their conditions need not be identical. Equal values may be shown once.

The assay deals with purified PARP protein (Homo sapiens, UniProt P09874). Put plainly: PARP enzyme inhibition assay. It counts as biochemical. The note with it: 20 nM purified PARP (5 nM for tight-binding inhibitors), 500 μM NAD+, 25° C.; several values in one cell = repeat determinations; read-out: Inhibition Constant Ki.
Chain of purified PARP protein (P09874 whole entry): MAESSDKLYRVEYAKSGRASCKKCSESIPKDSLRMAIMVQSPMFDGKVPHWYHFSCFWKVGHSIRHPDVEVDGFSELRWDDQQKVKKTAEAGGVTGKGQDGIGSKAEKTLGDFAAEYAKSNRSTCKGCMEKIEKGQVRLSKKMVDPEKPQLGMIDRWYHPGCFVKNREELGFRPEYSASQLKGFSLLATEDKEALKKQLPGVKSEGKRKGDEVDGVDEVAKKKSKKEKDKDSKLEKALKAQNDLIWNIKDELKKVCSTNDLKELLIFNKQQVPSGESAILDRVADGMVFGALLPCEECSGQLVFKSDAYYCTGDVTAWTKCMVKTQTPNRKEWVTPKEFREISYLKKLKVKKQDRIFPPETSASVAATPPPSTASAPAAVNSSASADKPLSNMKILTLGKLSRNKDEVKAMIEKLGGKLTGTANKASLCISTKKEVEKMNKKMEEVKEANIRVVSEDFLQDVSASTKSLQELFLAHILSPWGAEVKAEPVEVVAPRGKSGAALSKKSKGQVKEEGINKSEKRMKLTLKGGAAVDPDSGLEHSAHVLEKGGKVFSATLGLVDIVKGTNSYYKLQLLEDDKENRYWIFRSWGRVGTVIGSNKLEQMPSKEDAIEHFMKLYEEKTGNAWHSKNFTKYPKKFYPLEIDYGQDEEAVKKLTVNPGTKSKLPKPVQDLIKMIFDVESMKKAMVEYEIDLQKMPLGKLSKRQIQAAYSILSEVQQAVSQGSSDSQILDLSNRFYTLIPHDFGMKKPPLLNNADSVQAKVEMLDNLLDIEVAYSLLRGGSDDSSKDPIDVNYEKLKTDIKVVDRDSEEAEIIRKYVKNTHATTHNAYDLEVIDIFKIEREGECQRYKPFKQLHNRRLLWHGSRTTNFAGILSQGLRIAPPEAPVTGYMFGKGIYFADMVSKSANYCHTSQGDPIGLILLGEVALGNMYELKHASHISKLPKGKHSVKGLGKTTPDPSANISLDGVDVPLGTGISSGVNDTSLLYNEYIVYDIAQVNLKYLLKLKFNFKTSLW

Regarding `Cc1ccc(CNCc2ccc(-c3nc4cccc5c4n3CCNC5=O)cc2)o1` [Example 195, 1-(4-{[(5-Methyl-furan-2-ylmethyl)-amino]-methyl}-phenyl)-8,9-dihydro-7H-2,7,9a-triaza-benzo[cd]azulen-6-one], the Ki was 4.7 nM and 5.9 nM.
`O=C1NCCn2c(-c3ccc(CNCc4ccccc4)cc3)nc3cccc1c32` [Example 196, 1-[4-(Benzylamino-methyl)-phenyl]-8,9-dihydro-7H-2,7,9a-triaza-benzo[cd]azulen-6-one]: the Ki is 3.9 nM.
As to `O=C1NCCn2c(-c3ccc(CN4CCc5ccccc5C4)cc3)nc3cccc1c32` [Example 198, 1-[4-(3,4-Dihydro-1H-isoquinolin-2-ylmethyl)-phenyl]-8,9-dihydro-7H-2,7,9a-triaza-benzo[cd]azulen-6-one], the Ki came out at 7.9 nM.
`CN(Cc1ccccc1)Cc1ccc(-c2nc3cccc4c3n2CCNC4=O)cc1` [Example 199, 1-[4-(Benzyl-methyl-amino-methyl)-phenyl]-8,9-dihydro-7H-2,7,9a-triaza-benzo[cd]azulen-6-one]: the inhibition constant Ki turned out to be 6.8 nM.
Then `CC(CNCc1ccc(-c2nc3cccc4c3n2CCNC4=O)cc1)c1ccccc1` (stereo not drawn) [Example 200, 1-{4-[(2-Phenyl-propylamino)-methyl]-phenyl}-8,9-dihydro-7H-2,7,9a-triaza-benzo[cd]azulen-6-one], with 6 nM; and `O=C1NCCn2c(-c3ccc(CNCCCc4ccccc4)cc3)nc3cccc1c32` [Example 201, 1-{4-[(3-Phenyl-propylamino)-methyl]-phenyl}-8,9-dihydro-7H-2,7,9a-triaza-benzo[cd]azulen-6-one], with 5.8 nM; and `CN(CCc1ccccn1)Cc1ccc(-c2nc3cccc4c3n2CCNC4=O)cc1` [Example 202, 1-(4-{[Methyl-(2-pyridin-2-yl-ethyl)-amino]-methyl}-phenyl)-8,9-dihydro-7H-2,7,9a-triaza-benzo[cd]azulen-6-one], with 3.2 nM.
In the case of `O=C1NCCn2c(-c3ccc(CNCCc4ccccn4)cc3)nc3cccc1c32` [Example 204, 1-{4-[(2-Pyridin-2-yl-ethylamino)-methyl]-phenyl}-8,9-dihydro-7H-2,7,9a-triaza-benzo[cd]azulen-6-one] it was 7.9 nM; in that of `CN(CCc1ccncc1)Cc1ccc(-c2nc3cccc4c3n2CCNC4=O)cc1` [Example 205, 1-(4-{[Methyl-(2-pyridin-4-yl-ethyl)-amino]-methyl}-phenyl)-8,9-dihydro-7H-2,7,9a-triaza-benzo[cd]azulen-6-one], 4.7 nM.
In the case of `O=C1NCCn2c(-c3ccc(CNCCc4ccncc4)cc3)nc3cccc1c32` [Example 206, 1-{4-[(2-Pyridin-4-yl-ethylamino)-methyl]-phenyl}-8,9-dihydro-7H-2,7,9a-triaza-benzo[cd]azulen-6-one] it was 6.4 nM; in that of `O=C1NCCn2c(-c3ccc(Cn4ccnc4)cc3)nc3cccc1c32` [Example 213, 1-(4-Imidazol-1-ylmethyl-phenyl)-8,9-dihydro-7H-2,7,9a-triaza-benzo[cd]azulen-6-one], 7.4 nM; in that of `CC1CCC(C)N1Cc1ccc(-c2nc3cccc4c3n2CCNC4=O)cc1` (stereo not drawn) [Example 214, 1-[4-(2,5-Dimethyl-pyrrolidin-1-ylmethyl)-phenyl]-8,9-dihydro-7H-2,7,9a-triaza-benzo[cd]azulen-6-one], 8.3 nM.
As for `CC1(C)CC2CC(C)(CN2Cc2ccc(-c3nc4cccc5c4n3CCNC5=O)cc2)C1` (stereo not drawn) [Example 215, 1-[4-(1,3,3-Trimethyl-6-aza-bicyclo[3.2.1]oct-6-ylmethyl)-phenyl]-8,9-dihydro-7H-2,7,9a-triaza-benzo[cd]azulen-6-one], the Ki turned out to be 11 nM.
In the case of `COC[C@@H]1CC[C@@H](COC)N1Cc1ccc(-c2nc3cccc4c3n2CCNC4=O)cc1` [Example 216, 1-[4-((2S,5S)-2,5-bis-Methoxymethyl-pyrrolidin-1-ylmethyl)-phenyl]-8,9-dihydro-7H-2,7,9a-triaza-benzo[cd]azulen-6-one], the Ki came out at 27 nM.
On to `O=C1NCCn2c(-c3ccc(CN4CCC[C@@H]4C(=O)OCc4ccccc4)cc3)nc3cccc1c32` [Example 217, (R)-1-[4-(6-oxo-6,7,8,9-Tetrahydro-2,7,9a-triaza-benzo[cd]azulen-1-yl)-benzyl]-pyrrolidine-2-carboxylic Acid Benzyl Ester], for which the Ki was determined as 26 nM.
Then `CC(C)(C)OC(=O)[C@H]1CCCN1Cc1ccc(-c2nc3cccc4c3n2CCNC4=O)cc1` [Example 218, (R)-1-[4-(6-oxo-6,7,8,9-Tetrahydro-2,7,9a-triaza-benzo[cd]azulen-1-yl)-benzyl]-pyrrolidine-2-carboxylic Acid tert-Butyl Ester], with 17 nM.
Take `CC(C)(C)OC(=O)NC1CCN(Cc2ccc(-c3nc4cccc5c4n3CCNC5=O)cc2)C1` (stereo not drawn) [Example 219, {1-[4-(6-oxo-6,7,8,9-Tetrahydro-2,7,9a-triaza-benzo[cd]azulen-1-yl)-benzyl]-pyrrolidin-3-yl}-carbamic Acid tert-Butyl Ester]: the Ki worked out at 11 nM.
Regarding `O=C1NCCn2c(-c3ccc(Cn4cccc4)cc3)nc3cccc1c32` [Example 220, 1-(4-Pyrrol-1-ylmethyl-phenyl)-8,9-dihydro-7H-2,7,9a-triaza-benzo[cd]azulen-6-one], the Ki was 4 nM.
Then `C[C@H]1Cn2c(-c3ccc(CN(C)C)cc3)nc3cccc(c32)C(=O)N1` [Example 221, (S)-1-(4-Dimethylaminomethyl-phenyl)-8-methyl-8,9-dihydro-7H-2,7,9a-triaza-benzo[cd]azulen-6-one], with 5 nM.
As for `C[C@H]1Cn2c(-c3ccc(CO)cc3)nc3cccc(c32)C(=O)N1` [Example 221a, (S)-1-(4-Hydroxymethyl-phenyl)-8-methyl-8,9-dihydro-7H-2,7,9a-triaza-benzo[cd]azulen-6-one], the Ki stood at 10 nM.
On to `CNCc1ccc(-c2nc3cccc4c3n2C[C@H](C)NC4=O)cc1` [Example 222, (S)-8-Methyl-1-(4-methylaminomethyl-phenyl)-8,9-dihydro-7H-2,7,9a-triaza-benzo[cd]azulen-6-one], for which the Ki is 2 nM and 2.3 nM and 3.5 nM.
As for `N#Cc1ccc(-c2nc3cccc4c3n2CCNC4=O)cc1` [Example 227, 4-(6-oxo-6,7,8,9-Tetrahydro-2,7,9a-triaza-benzo[cd]azulen-1-y)-benzonitrile], the Ki is 2.2 nM.
In the case of `CC(C)CC(O)c1ccc(-c2nc3cccc4c3n2CCNC4=O)cc1` (stereo not drawn) [Example 228, 1-[4-(1-Hydroxy-3-methyl-butyl)-phenyl]-8,9-dihydro-7H-2,7,9a-triaza-benzo[cd]azulen-6-one], the Ki is 4.6 nM.
In the case of `CC(C)CC(c1ccc(-c2nc3cccc4c3n2CCNC4=O)cc1)N1CC=CC1` (stereo not drawn) [Example 229, 1-{4-[1-(2,5-Dihydro-pyrrol-1-yl)-3-methyl-butyl]-phenyl}-8,9-dihydro-7H-2,7,9a-triaza-benzo[cd]azulen-6-one], the Ki is 5.3 nM and 6.8 nM.
Then `CC(C)CC(c1ccc(-c2nc3cccc4c3n2CCNC4=O)cc1)N1CCCC1` (stereo not drawn) [Example 230, 1-[4-(3-Methyl-1-pyrrolidin-1-yl-butyl)-phenyl]-8,9-dihydro-7H-2,7,9a-triaza-benzo[cd]azulen-6-one], with 5.3 nM; and `CC(C)CC(c1ccc(-c2nc3cccc4c3n2CCNC4=O)cc1)N(C)C` (stereo not drawn) [Example 231, 1-[4-(Dimethylamino-methyl-butyl)-phenyl]-8,9-dihydro-7H-2,7,9a-triaza-benzo[cd]azulen-6-one], with 6.9 nM; and `C[C@H]1Cn2c(-c3ccc(Cn4cccc4)cc3)nc3cccc(c32)C(=O)N1` [Example 234, (S)-8-Methyl-1-(4-pyrrol-1-ylmethyl-phenyl)-8,9-dihydro-7H -2,7,9a-triaza-benzo[cd]azulen-6-one], with 8.7 nM.
Consider `C[C@@H]1Cn2c(-c3ccc(Cl)cc3)nc3cccc(c32)C(=O)N1` [Example 236, (R)-1-(4-Chloro-phenyl)-8-methyl-8,9-dihydro-7H-2,7,9a-triaza-benzo[cd]azulen-6-one], for which the Ki came out at 113 nM.
Then `O=C1N[C@@H](CO)Cn2c(-c3ccc(Cl)cc3)nc3cccc1c32` [Example 237, (R)-1-(4-Chloro-phenyl)-8-hydroxymethyl-8,9-dihydro-7H-2,7,9a-triaza-benzo[cd]azulen-6-one], with 5 nM and 6 nM; and `O=C1N[C@@H](COCc2ccccc2)Cn2c(-c3ccc(Cl)cc3)nc3cccc1c32` [Example 237b, (R)-8-Benzyloxymethyl-1-(4-chloro-phenyl)-8,9-dihydro-7H-2,7,9a-triaza-benzo[cd]azulen-6-one], with 30 nM.
`CN(C)Cc1ccc(-c2nc3cccc4c3n2C[C@H](CO)NC4=O)cc1` [Example 238, (R)-1-(4-Dimethylaminomethyl-phenyl)-8-hydroxymethyl-8,9-dihydro-7H-2,7,9a-triaza-benzo[cd]azulen-6-one]: the Ki worked out at 7.3 nM.
In the case of `O=C1N[C@@H](COCc2ccccc2)Cn2c(-c3ccc(CO)cc3)nc3cccc1c32` [Example 238a, (R)-8-Benzyloxymethyl-1-(4-hydroxymethyl-phenyl)-8,9-dihydro-7H-2,7,9a-triaza-benzo[cd]azulen-6-one] it was 30.7 nM; in that of `CN(CCc1ccccc1)Cc1ccc(-c2nc3cccc4c3n2C[C@H](CO)NC4=O)cc1` [Example 239, (R)-8-Hydroxymethyl-1-{4-[(methyl-phenethyl-amino)-methyl]-phenyl}-8,9-dihydro-7H-2,7,9a-triaza-benzo[cd]azulen-6-one], 7.8 nM.
For `CNCc1ccc(-c2nc3cccc4c3n2C[C@H](CO)NC4=O)cc1` [Example 240, (R)-8-Hydroxymethyl-1-(4-methylaminomethyl-phenyl)-8,9-dihydro-7H-2,7,9a-triaza-benzo[cd]azulen-6-one], the inhibitory constant (Ki) was 4.2 nM and 4.5 nM.
As for `O=C1N[C@@H](CO)Cn2c(-c3ccc(CN4CCCC4)cc3)nc3cccc1c32` [Example 241, (R)-8-Hydroxymethyl-1-(4-pyrrolidin-1-ylmethyl-phenyl)-8,9-dihydro-7H-2,7,9a-triaza-benzo[cd]azulen-6-one], the inhibition constant (Ki) is 6.8 nM.
Take `N#CCc1ccc(-c2nc3cccc4c3n2CCNC4=O)cc1` [Example 242, [4-(6-oxo-6,7,8,9-Tetrahydro-2,7,9a-triaza-benzo[cd]azulen-1-yl)-phenyl]-acetonitrile]: the Ki came to 3.4 nM.

By Ki is commonly meant the dissociation constant of the complex between target and ligand, obtained from inhibition or displacement.
